What all share (assay type): cell-based, human
In one experiment the test system is KB V1 cells. Kind of experiment: SRB growth inhibition assay, KB V1. The note with it: IC50 KB V1 / IC50 KB-3-1.
Experiment [1] has as its system HepG2-DR cells. Kind of experiment: SRB growth inhibition assay, HepG2-DR. The note with it: IC50 HepG2-DR / IC50 HepG2. As to the method: K562, K562-DR, HepG2, HepG2-DR were cultured in RPMI-1640 medium containing 10% fetal bovine serum and 100 U/mL, antibiotics. […] Drug test: […] New calorimetric cytotoxicity assay for anticancer-drug screening. […] Mosmann T. Rapid colorimetric assay for cellular growth and survival: application to proliferation and cytotoxicity assays. […] Gerlier D, Thomasset N. […] Each growth inhibition experiment must be repeated three times and results are expressed as mean±standard deviation (SD). Solvents and media were included as blank control. In SRB assay, cells are inoculated at 5000 cells/well in a 96-well microplate and incubated overnight to let cells adhere. Drug treatment lasts for 72 hours and cells are fixed for 1 hour at 4° C. with 50 μl ice-cold 15% trichloroacetic acid and washed with triple-distilled water 5 times. […] The protein-bound dye is dissolved in 100 μl per well of 10 mM Tris base (pH 10.5). The color intensity of SRB, which positively correlate to cell number in preliminary experiments, is estimated at OD 515 nm.

Experiment [2] concerns K562-DR cells. Kind of experiment: MTT growth inhibition assay, K562-DR. Conditions: IC50 K562-DR / IC50 K562. How it is done: K562, K562-DR, HepG2, HepG2-DR were cultured in RPMI-1640 medium containing 10% fetal bovine serum and 100 U/mL, antibiotics. […] Drug test: […] New calorimetric cytotoxicity assay for anticancer-drug screening. […] Mosmann T. Rapid colorimetric assay for cellular growth and survival: application to proliferation and cytotoxicity assays. […] Gerlier D, Thomasset N. […] Each growth inhibition experiment must be repeated three times and results are expressed as mean±standard deviation (SD). Solvents and media were included as blank control. In MTT assay, cells are inoculated at 5000 cells/well and are incubated overnight. Drug treatment lasts for 68 h. MTT (5 mg/ml in PBS) is added to each well (1:10 dilution). […] Viable cell number is estimated by correlating to OD at 570 nm.
For orientation: Tetrazolium assays rely on reduction of a dye to a coloured formazan, in cell work by metabolically active cells.

For experiment [3], the system named is HepG2-DR cells. Kind of experiment: Reversal of multidrug resistance (fold decrease of anticancer drug IC50), HepG2-DR. As to the method: (§1) Cells and cell culture: cell lines used in the experiments are human hepatoma cell line (HepG2), human leukemia cell line (K562), human epidermoid carcinoma cell line (KB-3-1) and their multidrug resistant sublines HepG2-DR, K562-DR. and KB V1. The culture conditions for all cells are following: at 37° C. and 5% CO2), KB-3-1 and KBV1 were cultured in MEM medium containing 10% fetal bovine serum and 100 U/mL antibiotics; K562, K562-DR, HepG2, HepG2-DR were cultured in RPMI-1640 medium containing 10% fetal bovine serum and 100 U/mL, antibiotics. For maintaining the phenotypic characteristics of multidrug resistance, 1.2 μM and 0.1 μM doxorubicin were respectively added into the mediums of HepG2-DR and K562-DR; 200 ng/mL vinblastine was added into the medium of KBV1. Drug resistant cells were grown in drug free medium for at least 7 days before test.
(§2) Each growth inhibition experiment must be repeated three times and results are expressed as mean±standard deviation (SD). Solvents and media were included as blank control.
In SRB assay, cells are inoculated at 5000 cells/well in a 96-well microplate and incubated overnight to let cells adhere. Drug treatment lasts for 72 hours and cells are fixed for 1 hour at 4° C. with 50 μl ice-cold 15% trichloroacetic acid and washed with triple-distilled water 5 times. Cellular protein is stained by adding 50 μl of 0.4% SRB in 1% acetic acid for 10 minutes, rinsed with 1% acetic acid 5 times and air-dried. The protein-bound dye is dissolved in 100 μl per well of 10 mM Tris base (pH 10.5). The color intensity of SRB, which positively correlate to cell number in preliminary experiments, is estimated at OD 515 nm.
(§3) 1. Materials and methods: the same with I.
(§4) To evaluate the multidrug resistance reversing ability of (±)-Praeruptorin A derivatives, IC50 values of anticancer drugs in the presence and absence of cis-DMDCK, cis-DMDBK, trans-DMDCK, or trans-DMDBK at certain concentration were determined in HepG2-DR, K562-DR and KB V1 cells. The fold decrease of IC50 value of an anticancer drug in certain cell line achieved by a test compound is calculated (fold decrease=IC50 of an anti-tumor drug alone/IC50 of the anti-tumor drug in combination with the test compound) and is used for evaluating the ability of the test compound to reduce drug resistance. The larger the fold decrease value is, the stronger its ability to reverse drug resistance is. The results were average values of three repetitive tests. Verapamil (P-glycoprotein modulator) is the positive control.

Experiment [4] has as its system K562-DR cells. The experiment is described as follows: Reversal of multidrug resistance (fold decrease of anticancer drug IC50), K562-DR. Conditions: 4 μM test compound. How it is done: as §1, §2
In MTT assay, cells are inoculated at 5000 cells/well and are incubated overnight. Drug treatment lasts for 68 h. MTT (5 mg/ml in PBS) is added to each well (1:10 dilution). After incubation for 4 hour at 37° C., 5% CO2, 100 μl of stop solution (10% SDS-50% isobutanol-0.01N HCl) is added to each well to stop the reaction. Viable cell number is estimated by correlating to OD at 570 nm.
as §3, §4

Experiment [5] relates to P-gp. Kind of experiment: Immunoblotting analysis of P-gp expression, HepG2-DR. Conditions: 4 μM, 72 hours. How it is done:
(§5) Immunoblotting analysis of P-gp expression: cells were treated with 4 μM of cis-DMDCK, 4 μM of cis-DMDBK, 4 μM of trans-DMDCK, or 4 μM of trans-DMDBK for 72 hours. Treated cells were collected and mixed well in ice-cold lysis buffer (50 mM Tris pH7.4, 100 mM NaCl, 2 mM EDTA, 1% sodium deoxycholate, 0.1% SDS, 1% triton X-100, 2 mM PMSF, 1% aprotinin) for 30 minutes and then centrifuged to get the total protein. Protein concentration was determined using Bradford assay. In this experiment, 50 μg total protein was separated by 8% SDS-PAGE and electro-transferred to nitrocellulose membranes. The membrane was blocked by 5% skim milk/0.1% Tween-20/TBS (10 mM Tris pH7.5, 100 mM NaCl), and then incubated with anti-P-pg antibody for 1 hour, followed by horseradish-peroxidase-conjugated secondary antibody for another 1 hour. Protein bands were detected by the ECL method.
(In general: Immunoblotting shows a protein as a band on a membrane.)

Experiment [6] has as its system P-gp. The experiment is described as follows: Immunoblotting analysis of P-gp expression, KB V1. The note with it: KB V1, 4 μM, 72 hours. As to the method: as §5

The record followed here is patent US20090111836A1, “Angular Pyranocoumarins, Process for Preparation and Uses Thereof” (CITY UNIVERSITY OF HONG KONG, priority 2007, published 2009).

Entries after “also recorded” stand apart in the source; their conditions may differ.

Take `COc1ccc(/C=C/C(=O)O[C@@H]2[C@@H](OC(=O)/C=C/c3ccc(OC)c(OC)c3)c3c(ccc4ccc(=O)oc34)OC2(C)C)cc1OC` (racemic) [trans-DMDCK, (±)-3′-O,4′-O-bis(3,4-dimethoxycinnamoyl)-trans-khellactone]: the results for the Resistant ratio with KB V1 cells, in the experiment with HepG2-DR cells [1] and in the experiment on K562-DR cells [2] were 0.47, 1.36 and 1.42, respectively. For the same molecule, the results for the “Reversing parameter: fold decrease of IC50 of Doxorubicin” value in the experiment on HepG2-DR cells [3] (2 μM test compound), with HepG2-DR cells [3] (4 μM test compound) and in the experiment on K562-DR cells [4] were 8.0 ± 0.6 fold, 59.4 ± 18.5 fold and 16.1 ± 9.6 fold, respectively. The “Reversing parameter: fold decrease of IC50 of Puromycin” value is 5.6 ± 0.6 fold in the experiment with HepG2-DR cells [3] (2 μM test compound), 26.6 ± 6.4 fold with HepG2-DR cells [3] (4 μM test compound) and 31.1 ± 16.7 fold in the experiment on K562-DR cells [4]. In addition, the “Reversing parameter: fold decrease of IC50 of Vinblastine” value in the experiment on HepG2-DR cells [3] (2 μM test compound) was 1.9 ± 0.0 fold; in the experiment with HepG2-DR cells [3] (4 μM test compound), 13.9 ± 5.8 fold; in the experiment on K562-DR cells [4] it was 31.6 ± 5.1 fold. For the same molecule, in the experiment on K562-DR cells [4], the “Reversing parameter: fold decrease of IC50, verapamil” value is on record as 27.8 ± 8.7 fold. Also, the “Change in P-gp (MDR1) expression level” value in the experiment on P-gp [5] and in the experiment on P-gp [6] was “no detectable alteration; also recorded: not observed” each time.
